Laboratory results taken from publication PMC10412597, “Small molecule branched-chain ketoacid dehydrogenase kinase (BDK) inhibitors with opposing effects on BDK protein levels” (Nature Communications, 2023).
Read-outs that look alike come from different tables or passages of the source.

Columns and labels:
[1] = molecular target: T1, BDK-BCKDHE2 (biotinylated BDK with full length non-lipoylated E2 core subunit) (Homo sapiens, UniProt O14874); test: AlphaLISA BDK-E2 protein-protein interaction, signal decrease; format: binding
T1 construct: gene BCKDK; E2 with N-terminal FLAG and TEV site, DBT residues 62-482, bacterial expression, non-lipoylated; with Lipoamide acyltransferase component of branched-chain alpha-keto acid dehydrogenase complex, mitochondrial

[2] = molecular target: T2, BDK (branched-chain ketoacid dehydrogenase kinase, BCKDK; hBDK) (Homo sapiens, UniProt O14874); test: SPR; format: binding
T2 construct: purified recombinant kinase; construct details only in Supplementary Information; human stated for the crystal structures
Excerpt: SPR on BDK (branched-chain ketoacid dehydrogenase kinase, BCKDK; hBDK)

Serotonin 5-HT2a = molecular target: T3, Serotonin 5-HT2a (Homo sapiens, UniProt P28223); set-up: Cerep Bioprint off-target panel, functional receptor agonism or antagonism; settings: agonist
T3 construct: gene HTR2A
Procedure: To discover a potent and selective BDK inhibitor, a subset of the Pfizer compound collection was screened. […] Off target activity was assessed in both CEREP and kinase panels (Supplementary Tables 2, 3).

[3] = molecular target: T2, BDK (branched-chain ketoacid dehydrogenase kinase, BCKDK; hBDK); test: biochemical; set-up: TR-FRET BDK kinase assay, phosphorylation of LBD-E1 substrate, 15 uM ATP; settings: read-out: BDK in vitro IC50
Procedure: 705 covered with a lid and allowed to incubate at room temperature for 90 min. Final concentration of 706 LBD-E1 substrate was 50 nM and final concentration of ATP was 15 µM. Following incubation, 707 the enzyme reactions were stopped by adding 5 µL of 4X stop/primary antibody solution 708 containing 100 mM (final) EDTA, 2 nM (final) anti-His Eu antibody, and 1:1000 anti-pE1 antibody 709 in assay buffer. The plates were covered and incubated at room temperature for 30 min. Finally, 710 5 µL of 4X detection reagent consisting of 20 nM (final) anti-rabbit Ulight antibody and 1X LANCE 711 detection buffer in dH2O was then added. The plates were centrifuged for 30 seconds at 113 x g. 712 After a 60 min incubation, the plates were read on an EnVision® MultiReader in TR-FRET mode 713 (excitation 320 nm: emissions 665 nm). The raw data from the EnVision® MultiReader was 714 expressed as a ratio and was analyzed using proprietary software (Activity Base). […] IC50 values were determined from the percent effect data using a 4-parameter logistic dose 718 response model (Activity Base). To discover a potent and selective BDK inhibitor, a subset of the Pfizer compound collection was screened. […] Off target activity was assessed in both CEREP and kinase panels (Supplementary Tables 2, 3).

[4] = molecular target: T2, BDK (branched-chain ketoacid dehydrogenase kinase, BCKDK; hBDK); test: biochemical; set-up: SPR binding to captured BDK, 1:1 binding model; settings: read-out: BDK SPR KD
Procedure: 828 Tween-20 and 2% DMSO. The same buffer was used as the running buffer during the 829 experiments. Compound samples were injected at a flow rate of 30 µL/min for 120 seconds of 830 association time followed by at least 300 seconds of dissociation period. The compounds were 831 tested in a concentration series consisting of at least 6 samples made with 2-fold dilution. The 832 highest concentration was selected based on compound potency in the biochemical assay or 833 binding affinity observed in a previous experiment. Multiple blank injections were run before and 834 after each compound series to allow double reference subtraction during data processing and 835 analysis. Radicicol was tested in every experiment as a positive control to assess activity of the 836 captured protein on the surface. A DMSO curve was run during each experiment to properly 837 correct for excluded volume. The data were processed and analyzed using Bruker Analyzer, 838 Scrubber and Biaeval softwares to calculate binding affinities and kinetics by fitting the data to 839 1:1 binding model. To discover a potent and selective BDK inhibitor, a subset of the Pfizer compound collection was screened. […] Off target activity was assessed in both CEREP and kinase panels (Supplementary Tables 2, 3).

[5] = molecular target: T1, BDK-BCKDHE2 (biotinylated BDK with full length non-lipoylated E2 core subunit); test: AlphaLISA BDK-E2 protein-protein interaction, signal increase; format: binding
[6] = molecular target: T2, BDK (branched-chain ketoacid dehydrogenase kinase, BCKDK; hBDK); test: FRET assay of BDK phosphorylation of E2 RBD-E1 peptide substrate; format: biochemical; settings: read-out: BDK in vitro IC50 (nM)^a
Excerpt: FRET assay of BDK phosphorylation of E2 RBD-E1 peptide substrate on BDK (branched-chain ketoacid dehydrogenase kinase, BCKDK; hBDK)

[7] = molecular target: T4, BDK in human skeletal myocytes (Homo sapiens, UniProt O14874); test: AlphaLISA SureFire Ultra BCKDH phosphorylation in human skeletal myocytes; format: cell-based; settings: intact cells; read-out: Human skeletal myocyte IC50 (nM)^a
T4 construct: gene BCKDK; endogenous full kinase in human skeletal myocytes; read-out BCKDH E1alpha phosphorylation
Excerpt: AlphaLISA SureFire Ultra BCKDH phosphorylation in human skeletal myocytes on BDK in human skeletal myocytes

T3 sequence (P28223 whole entry): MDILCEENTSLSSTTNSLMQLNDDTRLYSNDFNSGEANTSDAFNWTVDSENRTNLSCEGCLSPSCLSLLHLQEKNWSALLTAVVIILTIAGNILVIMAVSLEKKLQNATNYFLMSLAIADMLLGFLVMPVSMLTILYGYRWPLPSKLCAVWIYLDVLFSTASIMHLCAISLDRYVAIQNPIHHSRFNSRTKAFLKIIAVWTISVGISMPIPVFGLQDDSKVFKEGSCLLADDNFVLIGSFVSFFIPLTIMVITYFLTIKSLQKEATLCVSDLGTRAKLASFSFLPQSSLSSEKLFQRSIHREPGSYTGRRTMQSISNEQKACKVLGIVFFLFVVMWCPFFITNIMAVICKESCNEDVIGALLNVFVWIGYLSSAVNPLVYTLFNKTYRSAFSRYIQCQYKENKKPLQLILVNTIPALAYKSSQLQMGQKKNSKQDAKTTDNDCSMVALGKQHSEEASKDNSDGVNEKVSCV

Structure (SMILES) | Kd [2] [nM] | IC50 [3] [nM] | Kd [4] [nM] | IC50 [6] [nM] | further results
O=C(O)c1sc2cc(F)sc2c1Cl [PF-07208254] | 84 ± 8.7 | – | – | – | IC50 [1]: 56 ± 26 nM; % (agonism) PF-07208254 (Serotonin 5-HT2a; 100 µM): -5%
Cc1ccc(-c2nc(-c3ccccc3C(=O)O)cs2)cc1 [S3] | – | 1200 ± 490 | 5800 ± 4400 | – | –
CCC1(COc2ccc(-c3csc(-c4ccccc4C(=O)O)n3)cn2)CC1 [PF-07247685] | 0.68 ± 0.38 | – | – | 0.86 ± 0.15 | EC50 [5]: 2.2 ± 0.35 nM; % (agonism) PF-07247685 (Serotonin 5-HT2a; 10 µM): 3%
O=C(O)c1sc2cc(Cl)sc2c1Cl [S1] | – | 600 ± 51 | 75 ± 2 | – | –
O=C(O)c1cc2sc(F)cc2s1 [S2] | – | 210 ± 10 | 270 ± 31 | – | –
CC(C)COc1ccc(-c2nc(-c3ccccc3C(=O)O)cs2)cn1 [PF-07238025] | 4.4 ± 1.1 | – | – | 4.5 ± 0.58 | EC50 ([5]; stabilises BDK-E2 interaction, pH […] KCl, […] MgCl2, […] DTT): 19 ± 1.7 nM; IC50 [7]: 59 ± 10 nM
